Test results taken from US20260285850A1, “SUBSTITUTED OXAZOLIDINONES AND IMIDAZOLINONES AS HERBICIDES” (FMC CORPORATION, priority 2023, published 2026).

What was measured:
Format in all cases: in vivo
[1] = tested on: ducksalad (Heteranthera limosa); assay: Test B flooded paddy test, visual plant response rating 0-100; settings: 250 g ai/ha, Flood, applied to paddy water, evaluated after 13 days
Summary of the method: (§1)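 In this flooded assay, 2-leaf seedlings received compound through the water layer, kept at 3 cm over the soil. Plants were held 13 days in a greenhouse and then visually compared with control pots.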

[2] = tested on: sedge, umbrella (small-flower umbrella sedge, Cyperus difformis); assay: as above; settings: 250 g ai/ha, Flood, applied to paddy water, evaluated after 13 days
Summary of the method: as §1

[3] = tested on: barnyardgrass (Echinochloa crusgalli); assay: as above; settings: 250 g ai/ha, Flood, applied to paddy water, evaluated after 13 days
Summary of the method: as §1

[4] = tested on: rice (Oryza sativa); assay: as above; settings: 250 g ai/ha, Flood, applied to paddy water, evaluated after 13 days
Summary of the method: as §1

[5] = tested on: corn (Zea mays); assay: Test A postemergence application, visual injury rating 0-100; settings: for Corn plant response rating (0-100): postemergence, 0 = no effect, 100 = complete control; for Corn plant response rating (0 to 100 scale): Postemergence
Summary of the method: (§2)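 Grow plants in loam soil blended with sand. Apply formulated compound (non-phytotoxic solvent, surfactant) as a directed soil spray before emergence, or to plants at the one- to two-leaf stage after emergence. Hold in greenhouse 10 days, then rate injury visually versus untreated controls on a 0-100 scale.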

[6] = tested on: galium (catchweed bedstraw, Galium aparine); assay: as above; settings: for Galium plant response rating (0-100): postemergence, 0 = no effect, 100 = complete control; for Galium plant response rating (0 to 100 scale): Postemergence
Summary of the method: as §2

[7] = tested on: ragweed (common ragweed, Ambrosia artemisiifolia); assay: as above; settings: for Ragweed plant response rating (0-100): postemergence, 0 = no effect, 100 = complete control; for Ragweed plant response rating (0 to 100 scale): Postemergence
Summary of the method: as §2

[8] = tested on: green foxtail (Setaria viridis); assay: as above; settings: for Foxtail, Green plant response rating (0-100): postemergence, 0 = no effect, 100 = complete control; for Foxtail, Green plant response rating (0 to 100 scale): Postemergence
Summary of the method: as §2

[9] = tested on: palmer (palmer amaranth, palmer pigweed, Amaranthus palmeri); assay: as above; settings: 10 days
Summary of the method: as §2

[10] = tested on: soybean (Glycine max); assay: as above; settings: for Soybean plant response rating (0-100): postemergence, 0 = no effect, 100 = complete control; for Soybean plant response rating (0 to 100 scale): Postemergence
Summary of the method: as §2

[11] = tested on: barnyardgrass (Echinochloa crus-galli); assay: as above; settings: for Barnyardgrass plant response rating (0-100): postemergence, 0 = no effect, 100 = complete control; for Barnyardgrass plant response rating (0 to 100 scale): Postemergence
Summary of the method: as §2

[12] = tested on: oat, wild (wild oat, Avena fatua); assay: as above; settings: for Oat, Wild plant response rating (0-100): postemergence, 0 = no effect, 100 = complete control; for Oat, Wild plant response rating (0 to 100 scale): Postemergence
Summary of the method: as §2

[13] = tested on: blackgrass (Alopecurus myosuroides); assay: as above; settings: for Blackgrass plant response rating (0-100): postemergence, 0 = no effect, 100 = complete control; for Blackgrass plant response rating (0 to 100 scale): Postemergence
Summary of the method: as §2

[14] = tested on: horseweed (Erigeron canadensis); assay: as above; settings: for Horseweed plant response rating (0-100): postemergence, 0 = no effect, 100 = complete control; for Horseweed plant response rating (0 to 100 scale): Postemergence
Summary of the method: as §2

[15] = tested on: kochia (Bassia scoparia); assay: as above; settings: for Kochia plant response rating (0-100): postemergence, 0 = no effect, 100 = complete control; for Kochia plant response rating (0 to 100 scale): Postemergence
Summary of the method: as §2

[16] = tested on: wheat (Triticum aestivum); assay: as above; settings: for Wheat plant response rating (0-100): postemergence, 0 = no effect, 100 = complete control; for Wheat plant response rating (0 to 100 scale): Postemergence
Summary of the method: as §2

[17] = tested on: ryegrass, Italian (italian ryegrass, Lolium multiflorum); assay: as above; settings: for Ryegrass, Italian plant response rating (0-100): postemergence, 0 = no effect, 100 = complete control; for Ryegrass, Italian plant response rating (0 to 100 scale): Postemergence
Summary of the method: as §2

[18] = tested on: corn (Zea mays); assay: Test A preemergence soil spray, visual injury rating 0-100; settings: 10 days
Summary of the method: as §2

[19] = tested on: ragweed (common ragweed, Ambrosia artemisiifolia); assay: as above; settings: 10 days
Summary of the method: as §2

[20] = tested on: green foxtail (Setaria viridis); assay: as above; settings: 10 days
Summary of the method: as §2

[21] = tested on: palmer (palmer amaranth, palmer pigweed, Amaranthus palmeri); assay: as above; settings: 10 days
Summary of the method: as §2

[22] = tested on: soybean (Glycine max); assay: as above; settings: 10 days
Summary of the method: as §2

[23] = tested on: barnyardgrass (Echinochloa crus-galli); assay: as above; settings: 10 days
Summary of the method: as §2

[24] = tested on: oat, wild (wild oat, Avena fatua); assay: as above; settings: 10 days
Summary of the method: as §2

[25] = tested on: blackgrass (Alopecurus myosuroides); assay: as above; settings: 10 days
Summary of the method: as §2

[26] = tested on: kochia (Bassia scoparia); assay: as above; settings: 10 days
Summary of the method: as §2

[27] = tested on: wheat (Triticum aestivum); assay: as above; settings: 10 days
Summary of the method: as §2

[28] = tested on: ryegrass, Italian (italian ryegrass, Lolium multiflorum); assay: as above; settings: 10 days
Summary of the method: as §2

[29] = 125 g ai/ha, 10 days, 0 is no effect, 100 is complete control
[30] = 31 g ai/ha, 0 = no effect, 100 = complete control
[31] = 125 g ai/ha, 0 = no effect, 100 = complete control
[32] = 16 g ai/ha, greenhouse 10 days, 0 no effect, 100 complete control
[33] = 62 g ai/ha, 0 = no effect, 100 = complete control

CC1(C(=O)NC2CCC(C(=O)O)C2)CN(c2cc(F)cc(Cl)c2)C(=O)O1 (stereo not shown) [Compound 7]
Plant response rating, Ducksalad (0 to 100 scale, 0 is no effect and 100 is complete control) [1]: 60
Plant response rating, Sedge, Umbrella (0 to 100 scale, 0 is no effect and 100 is complete control) [2]: 90
Plant response rating, Barnyardgrass (0 to 100 scale, 0 is no effect and 100 is complete control) [3]: 60
Plant response rating, Rice (0 to 100 scale, 0 is no effect and 100 is complete control) [4]: 25
Corn plant response rating (0-100) ([5]; 31 g ai/ha, 10 days): 90
Corn plant response rating (0 to 100 scale) [5, 29]: 100
Galium plant response rating (0-100) ([6]; 31 g ai/ha, 10 days): 80
Galium plant response rating (0 to 100 scale) [6, 29]: 80
Ragweed plant response rating (0-100) ([7]; 31 g ai/ha, 10 days): 0
Ragweed plant response rating (0 to 100 scale) [7, 29]: 20
Foxtail, Green plant response rating (0-100) ([8]; 31 g ai/ha, 10 days): 50
Foxtail, Green plant response rating (0 to 100 scale) [8, 29]: 90
Amaranth, Palmer plant response rating (0-100) ([9]; 31 g ai/ha, postemergence, 0 = no effect, 100 = complete control): 50
Amaranth, Palmer / Pigweed, Palmer plant response rating (0 to 100 scale) ([9]; Postemergence, 125 g ai/ha, 0 is no effect, 100 is complete control): 80
Soybean plant response rating (0-100) ([10]; 31 g ai/ha, 10 days): 50
Soybean plant response rating (0 to 100 scale) [10, 29]: 60
Barnyardgrass plant response rating (0-100) ([11]; 31 g ai/ha, 10 days): 100
Barnyardgrass plant response rating (0 to 100 scale) [11, 29]: 100
Oat, Wild plant response rating (0-100) ([12]; 31 g ai/ha, 10 days): 90
Oat, Wild plant response rating (0 to 100 scale) [12, 29]: 100
Blackgrass plant response rating (0-100) ([13]; 31 g ai/ha, 10 days): 60
Blackgrass plant response rating (0 to 100 scale) [13, 29]: 70
Horseweed plant response rating (0-100) ([14]; 31 g ai/ha, 10 days): 0
Horseweed plant response rating (0 to 100 scale) [14, 29]: 40
Kochia plant response rating (0-100) ([15]; 31 g ai/ha, 10 days): 70
Kochia plant response rating (0 to 100 scale) [15, 29]: 80
Wheat plant response rating (0-100) ([16]; 31 g ai/ha, 10 days): 90
Wheat plant response rating (0 to 100 scale) [16, 29]: 90
Ryegrass, Italian plant response rating (0-100) ([17]; 31 g ai/ha, 10 days): 80
Ryegrass, Italian plant response rating (0 to 100 scale) [17, 29]: 90
Corn plant response rating (0-100) [18, 30]: 0
Corn plant response rating (0 to 100 scale) [18, 31]: 80
Ragweed plant response rating (0-100) [19, 30]: 0
Ragweed plant response rating (0 to 100 scale) [19, 31]: 0
Foxtail, Green plant response rating (0-100) [20, 30]: 20
Foxtail, Green plant response rating (0 to 100 scale) [20, 31]: 100
Amaranth, Palmer plant response rating (0-100) [21, 30]: 0
Amaranth, Palmer plant response rating (0 to 100 scale) [21, 31]: 90
Soybean plant response rating (0-100) [22, 30]: 20
Soybean plant response rating (0 to 100 scale) [22, 31]: 60
Barnyardgrass plant response rating (0-100) [23, 30]: 0
Barnyardgrass plant response rating (0 to 100 scale) [23, 31]: 90
Oat, Wild plant response rating (0-100) [24, 30]: 20
Oat, Wild plant response rating (0 to 100 scale) [24, 31]: 70
Blackgrass plant response rating (0-100) [25, 30]: 20
Blackgrass plant response rating (0 to 100 scale) [25, 31]: 70
Kochia plant response rating (0-100) [26, 30]: 0
Kochia plant response rating (0 to 100 scale) [26, 31]: 80
Wheat plant response rating (0-100) [27, 30]: 90
Wheat plant response rating (0 to 100 scale) [27, 31]: 90

COC(=O)C1CC(NC(=O)C2(C(F)(F)F)CN(c3cc(F)cc(F)c3)C(=O)O2)C2CC12 (stereo not shown) [Compound 177]
Plant response rating, Ducksalad (0 to 100 scale, 0 is no effect and 100 is complete control) [1]: 75
Plant response rating, Sedge, Umbrella (0 to 100 scale, 0 is no effect and 100 is complete control) [2]: 80
Plant response rating, Barnyardgrass (0 to 100 scale, 0 is no effect and 100 is complete control) [3]: 90
Plant response rating, Rice (0 to 100 scale, 0 is no effect and 100 is complete control) [4]: 90
Corn plant response rating (0-100) ([5]; 62 g ai/ha, 10 days): 90
Corn plant response rating (0 to 100 scale) [5, 32]: 30
Galium plant response rating (0-100) ([6]; 62 g ai/ha, 10 days): 80
Galium plant response rating (0 to 100 scale) [6, 32]: 90
Ragweed plant response rating (0-100) ([7]; 62 g ai/ha, 10 days): 20
Ragweed plant response rating (0 to 100 scale) [7, 32]: 0
Foxtail, Green plant response rating (0-100) ([8]; 62 g ai/ha, 10 days): 90
Foxtail, Green plant response rating (0 to 100 scale) [8, 32]: 30
Soybean plant response rating (0-100) ([10]; 62 g ai/ha, 10 days): 50
Soybean plant response rating (0 to 100 scale) [10, 32]: 20
Barnyardgrass plant response rating (0-100) ([11]; 62 g ai/ha, 10 days): 80
Barnyardgrass plant response rating (0 to 100 scale) [11, 32]: 70
Oat, Wild plant response rating (0-100) ([12]; 62 g ai/ha, 10 days): 90
Oat, Wild plant response rating (0 to 100 scale) [12, 32]: 70
Blackgrass plant response rating (0-100) ([13]; 62 g ai/ha, 10 days): 90
Blackgrass plant response rating (0 to 100 scale) [13, 32]: 80
Horseweed plant response rating (0-100) ([14]; 62 g ai/ha, 10 days): 10
Horseweed plant response rating (0 to 100 scale) [14, 32]: 0
Kochia plant response rating (0-100) ([15]; 62 g ai/ha, 10 days): 70
Kochia plant response rating (0 to 100 scale) [15, 32]: 30
Wheat plant response rating (0-100) ([16]; 62 g ai/ha, 10 days): 90
Wheat plant response rating (0 to 100 scale) [16, 32]: 80
Ryegrass, Italian plant response rating (0-100) ([17]; 62 g ai/ha, 10 days): 80
Ryegrass, Italian plant response rating (0 to 100 scale) [17, 32]: 70
Corn plant response rating ([18]; 16 g ai/ha, 0 to 100 scale): 10
Corn plant response rating (0-100) [18, 33]: 10
Ragweed plant response rating ([19]; 16 g ai/ha, 0 to 100 scale): 0
Ragweed plant response rating (0-100) [19, 33]: 20
Foxtail, Green plant response rating ([20]; 16 g ai/ha, 0 to 100 scale): 90
Foxtail, Green plant response rating (0-100) [20, 33]: 100
Pigweed, Palmer plant response rating ([21]; 16 g ai/ha, 0 to 100 scale): 90
Pigweed, Palmer plant response rating (0-100) [21, 33]: 100
Soybean plant response rating ([22]; 16 g ai/ha, 0 to 100 scale): 0
Soybean plant response rating (0-100) [22, 33]: 0
Barnyardgrass plant response rating ([23]; 16 g ai/ha, 0 to 100 scale): 60
Barnyardgrass plant response rating (0-100) [23, 33]: 90
Oat, Wild plant response rating ([24]; 16 g ai/ha, 0 to 100 scale): 0
Oat, Wild plant response rating (0-100) [24, 33]: 90
Blackgrass plant response rating ([25]; 16 g ai/ha, 0 to 100 scale): 60
Blackgrass plant response rating (0-100) [25, 33]: 90
Kochia plant response rating ([26]; 16 g ai/ha, 0 to 100 scale): 0
Kochia plant response rating (0-100) [26, 33]: 80
Wheat plant response rating ([27]; 16 g ai/ha, 0 to 100 scale): 40
Wheat plant response rating (0-100) [27, 33]: 100
Ryegrass, Italian plant response rating ([28]; 16 g ai/ha, 0 to 100 scale): 80
Ryegrass, Italian plant response rating (0-100) [28, 33]: 90
